Measurements: patent US7064117B2, “Anti-cancer 2,3-dihydro-1H-pyrrolo[3,2-f]quinoline complexes of cobalt and chromium” (Auckland Uniservices Limited, priority 2001, dated 2006)
Read-outs that look alike come from different tables or passages of the source. Blank lines part the entries; values can stand above or below the compound they belong to.

Key:
EMT6 = assay: cytotoxicity, 4 h aerobic drug exposure, EMT6; assay type: cell-based, murine; details: read-out: IC50 EMT6
UV4 cell line = assay: cytotoxicity, 4 h aerobic drug exposure, UV4; assay type: cell-based, Chinese hamster; details: read-out: IC50 UV4
SKOV3 [1] = assay: cytotoxicity, 4 h aerobic drug exposure, SKOV3; assay type: cell-based, human; details: read-out: IC50 SKOV3
AA8 = assay: cytotoxicity, 4 h aerobic drug exposure, AA8; assay type: cell-based, Chinese hamster; details: read-out: IC50 AA8
A549 wt/s = assay: cytotoxicity under oxic and anoxic conditions, A549 wt/s; assay type: cell-based, human; details: for IC50: Homo sapiens, A549, 4 h exposure
Protocol: (§1) The metal complexes also show an ability to be activated by endogenous enzymes under hypoxia, as shown for metal complex M1 in Table 4 and FIG. 2. […] Thus the metal complexes have utility as hypoxia- as well as radiation-activated cytotoxins.
(§2) In Table 4, A549wt/s is a wild-type human […] carcinoma cell line, SKOV3 is a human ovarian cancer cell line and WiDr-2 is a clonal cell line derived from the WiDr human colon carcinoma line. IC50s (in μM are determined under both oxic and hypoxic conditions, and the hypoxic cytotoxicity ratio (HCR) is the average intra-experiment ratio of the IC50s measured under oxic and hypoxic conditions.

[2] = tested on: panel of mammalian cell lines; assay: cytotoxicity in a panel of mammalian cell lines (summary in words); details: summary of Table 2
SKOV3 [3] = assay: cytotoxicity under oxic and anoxic conditions, SKOV3; assay type: cell-based, human; details: for IC50: Homo sapiens, SK-OV-3, 4 h exposure
Protocol: as §1, §2

HT29 cultures = assay: activation by endogenous enzymes under hypoxia (Table 4 and FIG. 2); assay type: cell-based; details: summary of Table 4 and FIG. 2
Source text: as §1

[4] = Cricetulus griseus, CHO-AA8, 4 h
[5] = average intra-experiment ratio of IC50s oxic/hypoxic
[6] = 4 h aerobic exposure, mean ± sem

SMILES: Cl.Cl.Cl.Cl.O=S(=O)(O)CCCCN1CCNCCNCCNCC1
melting point: 301 to 303 °C

SMILES: Oc1cccc2cccnc12 [Compound 8-HQ, 8-hydroxyquinoline, reference compound]
IC50 (EMT6; Mus musculus, EMT6, 4 h): 3.92 ± 1.04 µM
IC50 (UV4 cell line; Cricetulus griseus, UV4, 4 h): 2.16 ± 0.12 µM
IC50 (SKOV3 [1]; Homo sapiens, SK-OV-3, 4 h): 4.07 ± 0.89 µM
IC50 (AA8; [4]): 2.07 ± 0.02 µM

SMILES: COc1cc2cc(C(=O)N3CC(CCl)c4c3cc(O)c3ncccc43)[nH]c2c(OC)c1OC (centres unmarked) [Compound 18a, 1-(Chloromethyl)-5-hydroxy-3-[(5,6,7-trimethoxyindol-2-yl)carbonyl]-2,3-dihydro-1H-pyrrolo[3,2-f]quinoline]
IC50 (A549 wt/s; anoxic, read-out: IC50 A549 wt/s anoxic): 0.05 ± 0.014 nM
IC50 (A549 wt/s; oxic, read-out: IC50 A549 wt/s oxic): 0.05 ± 0.016 nM
HCR A549 wt/s (hypoxic cytotoxicity ratio) (A549 wt/s; [5]): 0.79 ± 0.35(2)
IC50 (EMT6; Mus musculus, EMT6, 4 h): 5.1e-05 ± 8e-06 µM
IC50 (UV4 cell line; Cricetulus griseus, UV4, 4 h): 7e-05 ± 1.5e-05 µM
IC50 (SKOV3 [1]; Homo sapiens, SK-OV-3, 4 h): 0.00025 ± 3.7e-05 µM
cytotoxicity in words [2]: exceptionally cytotoxic
IC50 (AA8; [4]): 0.00014 ± 2.2e-05 µM
IC50 (SKOV3 [3]; anoxic, read-out: IC50 SKOV3 anoxic): 0.35 ± 0.093 nM
IC50 (SKOV3 [3]; oxic, read-out: IC50 SKOV3 oxic): 0.25 ± 0.037 nM
HCR SKOV3 (hypoxic cytotoxicity ratio) (SKOV3 [3]; [5]): 0.61(1)
activation by endogenous enzymes under hypoxia, in words (HT29 cultures): not activated by endogenous enzymes under hypoxic conditions

SMILES: COc1cc2cc(C(=O)N3CC(CCl)c4c3cc(N)c3ncccc43)[nH]c2c(OC)c1OC (centres unmarked) [Compound 27, 5-Amino-1-(chloromethyl)-3-[(5,6,7-trimethoxyindol-2-yl)carbonyl]-2,3-dihydro-1H-pyrrolo[3,2-f]quinoline]
IC50 (EMT6; Mus musculus, EMT6, 4 h aerobic exposure, mean ± sem): 0.0026 ± 0.0005 µM
IC50 (UV4 cell line; Cricetulus griseus, UV4, 4 h aerobic exposure, mean ± sem): 0.0029 ± 0.006 µM
IC50 (SKOV3 [1]; Homo sapiens, SK-OV-3, 4 h aerobic exposure, mean ± sem): 0.012 ± 0.0023 µM
cytotoxicity in words [2]: exceptionally cytotoxic
IC50 (AA8; Cricetulus griseus, CHO-AA8, 4 h aerobic exposure, mean ± sem): 0.0079 ± 0.002 µM
melting point: 258 to 263 °C

SMILES: COc1cc2cc(C(=O)N3CC(CCl)c4c3cc(NCCN)c3ccccc43)[nH]c2c(OC)c1OC.Cl.Cl (centres unmarked) [Compound 29, 5-(2-aminoethylamino)-3-[(5,6,7-trimethoxyindol-2-yl)carbonyl]-1-(chloromethyl)-1,2-dihydro-3H-benz[e]indole dihydrochloride]
IC50 (EMT6; Mus musculus, EMT6, 4 h): 0.0028 µM
IC50 (UV4 cell line; Cricetulus griseus, UV4, 4 h): 0.0041 ± 0.0003 µM
IC50 (SKOV3 [1]; Homo sapiens, SK-OV-3, 4 h): 0.0062 µM
cytotoxicity in words [2]: exceptionally cytotoxic
IC50 (AA8; [4]): 0.0058 ± 0.0007 µM
melting point: > 200 °C

SMILES: C1CNCCNCCNCCN1 [Cyclen, reference compound]
IC50 (EMT6; [6]): 9710 ± 2710 µM
IC50 (UV4 cell line; [6]): 13800 ± 2180 µM
IC50 (SKOV3 [1]; [6]): 11500 ± 4410 µM
IC50 (AA8; [6]): 13300 ± 2670 µM

Continued, values first:

melting point: 176 to 179 °C
SMILES: CN(C)CCOC1(O)C=CC2=NC(C(=O)N3CC(CCl)c4c3ccc3ncccc43)=CC2=C1 (centres unmarked)

melting point: 186 to 189 °C
SMILES: COc1ccc2[nH]c(C(=O)N3CC(CCl)c4c3cc(O)c3ncccc43)cc2c1 (centres unmarked)

melting point: 208 to 211 °C
SMILES: COc1ccc(/C=C/C(=O)N2CC(CCl)c3c2cc(O)c2ncccc32)cc1 (centres unmarked)

melting point: 215 to 218 °C
SMILES: COc1ccc(/C=C/C(=O)N2CC(CCl)c3c2cc(O)c2ncccc32)cc1O (centres unmarked)

melting point: 279 to 281 °C
SMILES: Cl.Cl.Cl.Cl.O=S(=O)(O)CCCN1CCNCCN(CCCS(=O)(=O)O)CCNCC1
